Reference: PMC10541198, “Specific quinone reductase 2 inhibitors reduce metabolic burden and reverse Alzheimer’s disease phenotype in mice” (The Journal of Clinical Investigation, 2023)
“And” between values parts separate entries of the source, which are not always exact repeats. Equal values may be shown once.

Molecular target: T1, QR2 expressed in HEK293T (Homo sapiens, UniProt P16083)
T1 construct: endogenous in cells; host or cells: HEK293T
T1 sequence (P16083 1-231): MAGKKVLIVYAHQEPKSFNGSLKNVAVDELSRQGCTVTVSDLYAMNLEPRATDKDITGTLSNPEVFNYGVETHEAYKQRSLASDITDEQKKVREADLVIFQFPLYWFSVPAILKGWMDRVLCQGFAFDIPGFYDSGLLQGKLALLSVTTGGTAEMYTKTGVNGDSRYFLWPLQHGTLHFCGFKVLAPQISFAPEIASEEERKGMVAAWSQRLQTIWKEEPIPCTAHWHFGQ
Assay: Cellular thermal shift assay (CETSA; Tagg curves and ITDRF)
Assay type: cell-based
Conditions: 73°C, n = 3; read-out: EC50, isothermal dose-response of QR2 stabilization
Procedure: To establish direct target engagement and cell membrane permeability, a cellular thermal shift assay (CETSA) was carried out, using leading QR2is YB’s-537, 800, and 808. Following a 1 hour preincubation with 5 μM of the QR2is or vehicle, thermal aggregation curves (Taggs) of QR2 expressed in HEK293T were measured in increasing temperatures. All QR2is increased QR2 thermal stability compared with vehicle (Supplemental Figure 2A). Based on the Tagg curves we selected 73°C for isothermal dose-response fingerprint (IDTRF) experiments (Supplemental Figure 2B). The ITDRF allowed the relative quantification of the binding of each of the QR2is to QR2, measured as the EC50 (Figure 3A). […] We evaluated the safety of the QR2is using cell toxicity and viability assays. […] Cell viability was assessed by XTT assay in HEK239T cells, using a dose response, with 3- or 24-hour incubations of the leading QR2is. No sign of toxicity was seen (Figure 3C). Next, we wanted to assess if, similar to QR2 KO, QR2is can reduce cellular ROS in HCT116 cells and see whether any observable effect is occluded in QR2Δ cells. […] We then assessed WT HCT116 cells by immunoblot (Supplemental Figure 2, C and D), after being treated with YB-800 (2 μM) for 4 consecutive days.
H2DCFDA ROS assay was carried out according to established protocols, with some adjustment (Supplemental Methods) ([6]). Cell toxicity was measured via ATP depletion (CellTiter Glo, Promega) in THLE-2 cells (ATCC, CRL-2706), following 72 hours of exposure to the test compounds, and cell viability was assessed using XTT assay (Biological Industries) according to manufacturers protocols. CETSA was performed as previously described ([53]) with some modifications, using QR2 (Santa Cruz, sc-271665) and SOD1 (Santa Cruz, sc-17767) antibodies. SDS-PAGE and immunoblot imaging were carried out as previously described ([55]), using Tubulin (Sigma-Aldrich, SAB4500087), QR2 (Santa Cruz, sc-271665), NDUFA9 (AbCam, ab14713) and CD73 (Cell Signaling Technology, D7F9A) antibodies. […]
HEK293FT cells were cultured with penicillin- streptomycin antibiotics in Invitrogen DMEM (Thermo
Fisher Scientific) with 10% fetal bovine serum a nd L -glutamine, and grown to 80-90% confluence in 100
mm plates, while being passaged every 2–3 d. […]
Cellular The rm a l Shift Assay (CETSA)
The CETSA assay was performed as described(54) with some modifications. Bri efl y, HEK293T cel ls wer e
trypsinized (Biological Indust ri es), washed in PBS (Sigma-Aldrich) and then suspended in PBS containing
protease inhibitor cocktail (Roche). The suspended cells were then divided into two Eppendorf tubes and
were treated with either compound or DMSO (Sigma-Aldrich) for 1h at 37 °C with shaking. Following
treatment, each sample was divided into PCR tubes (100µL/tube) and subjected to a temperature gradient
(ranging fr om 63 to 80 °C) for 3 minutes. Cell lysates we r e obtained by 3- cycles of freeze- t ha w using li qui d
nitrogen and a thermal bl ock set to 25 °C. Samples were then centrifuged at 15,000rpm at 4 °C f or 20min a nd
were subsequently analyzed by Western Blot of QR2 (1:100, Santa Cruz; sc-271665). The isothermal
concentration response fingerprint (ITDRF) experiments were done using a constant temperature of 73 °C.
Band intensities were normalized to the highest concentration and SOD1 levels (1:200, Santa Cruz; sc -
(§1) 17767). Analysis of the results wer e done in accordance to Jafari et a l .( 63) us i ng GraphPad Pr i sm software.

SMILES | EC50
Cc1ccc(-c2cn3cccc(C)c3n2)cc1S(=O)(=O)N1CCNCC1 [YB-537] | 129 nM

Same assay, conditions: 73°C; log[Inhibitor], M -5

SMILES | QR2 stabilization signal, ITDRF (replicates)
Cc1ccc(-c2cn3cccc(C)c3n2)cc1S(=O)(=O)N1CCNCC1 [YB-537] | 8037 and 7667

Same assay, conditions: 73°C; log[Inhibitor], M -5.6

SMILES | QR2 stabilization signal, ITDRF (replicates)
Cc1ccc(-c2cn3cccc(C)c3n2)cc1S(=O)(=O)N1CCNCC1 [YB-537] | 10469 and 7617 and 6857

Same assay, conditions: 73°C; log[Inhibitor], M -5.9

SMILES | QR2 stabilization signal, ITDRF (replicates)
Cc1ccc(-c2cn3cccc(C)c3n2)cc1S(=O)(=O)N1CCNCC1 [YB-537] | 10266 and 7463 and 6486

Same assay, conditions: 73°C; log[Inhibitor], M -6.2

SMILES | QR2 stabilization signal, ITDRF (replicates)
Cc1ccc(-c2cn3cccc(C)c3n2)cc1S(=O)(=O)N1CCNCC1 [YB-537] | 8878 and 6878 and 4582

Same assay, conditions: 73°C; log[Inhibitor], M -6.5

SMILES | QR2 stabilization signal, ITDRF (replicates)
Cc1ccc(-c2cn3cccc(C)c3n2)cc1S(=O)(=O)N1CCNCC1 [YB-537] | 6804 and 5633

Same assay, conditions: 73°C; log[Inhibitor], M -6.8

SMILES | QR2 stabilization signal, ITDRF (replicates)
Cc1ccc(-c2cn3cccc(C)c3n2)cc1S(=O)(=O)N1CCNCC1 [YB-537] | 3383 and 3296 and 2262

Same assay, conditions: 73°C; log[Inhibitor], M -7.1

SMILES | QR2 stabilization signal, ITDRF (replicates)
Cc1ccc(-c2cn3cccc(C)c3n2)cc1S(=O)(=O)N1CCNCC1 [YB-537] | 1653 and 1901 and 1028

Same assay, conditions: 73°C; log[Inhibitor], M -7.4

SMILES | QR2 stabilization signal, ITDRF (replicates)
Cc1ccc(-c2cn3cccc(C)c3n2)cc1S(=O)(=O)N1CCNCC1 [YB-537] | 762 and 749 and 458

Same assay, conditions: 73°C; log[Inhibitor], M -7.7

SMILES | QR2 stabilization signal, ITDRF (replicates)
Cc1ccc(-c2cn3cccc(C)c3n2)cc1S(=O)(=O)N1CCNCC1 [YB-537] | 410 and 416

Same assay, conditions: 73°C; log[Inhibitor], M -8

SMILES | QR2 stabilization signal, ITDRF (replicates)
Cc1ccc(-c2cn3cccc(C)c3n2)cc1S(=O)(=O)N1CCNCC1 [YB-537] | 212 and 226 and 182

Same assay, conditions: 73°C; log[Inhibitor], M -9

SMILES | QR2 stabilization signal, ITDRF (replicates)
Cc1ccc(-c2cn3cccc(C)c3n2)cc1S(=O)(=O)N1CCNCC1 [YB-537] | 110 and 98 and 105

Tested on: THLE-2 cells
Assay: ATP depletion cell toxicity assay (CellTiter Glo), 72 h
Assay type: cell-based
Conditions: THLE2, 72 hour; inhibitor 3.9e-7 M; in % (unit assumed)
Procedure: H2DCFDA ROS assay was carried out according to established protocols, with some adjustment (Supplemental Methods) ([6]). Cell toxicity was measured via ATP depletion (CellTiter Glo, Promega) in THLE-2 cells (ATCC, CRL-2706), following 72 hours of exposure to the test compounds, and cell viability was assessed using XTT assay (Biological Industries) according to manufacturers protocols. CETSA was performed as previously described ([53]) with some modifications, using QR2 (Santa Cruz, sc-271665) and SOD1 (Santa Cruz, sc-17767) antibodies. SDS-PAGE and immunoblot imaging were carried out as previously described ([55]), using Tubulin (Sigma-Aldrich, SAB4500087), QR2 (Santa Cruz, sc-271665), NDUFA9 (AbCam, ab14713) and CD73 (Cell Signaling Technology, D7F9A) antibodies.
with a 100 µM as upper limit, for 72 h. […]
Cellular The rm a l Shift Assay (CETSA) […]
as §1

SMILES | cell viability, Cell-Titer-Glo (replicates)
Cc1ccc(-c2cn3cccc(C)c3n2)cc1S(=O)(=O)N1CCNCC1 [YB-537] | 89.3 and 104.9 and 105.3

Same assay, conditions: THLE2, 72 hour; inhibitor 7.8e-7 M; in % (unit assumed)

SMILES | cell viability, Cell-Titer-Glo (replicates)
Cc1ccc(-c2cn3cccc(C)c3n2)cc1S(=O)(=O)N1CCNCC1 [YB-537] | 93.6 and 99.6 and 103.9

Same assay, conditions: THLE2, 72 hour; inhibitor 1.5625e-6 M; in % (unit assumed)

SMILES | cell viability, Cell-Titer-Glo (replicates)
Cc1ccc(-c2cn3cccc(C)c3n2)cc1S(=O)(=O)N1CCNCC1 [YB-537] | 96.4 and 109.9 and 90.1

Same assay, conditions: THLE2, 72 hour; inhibitor 3.125e-6 M; in % (unit assumed)

SMILES | cell viability, Cell-Titer-Glo (replicates)
Cc1ccc(-c2cn3cccc(C)c3n2)cc1S(=O)(=O)N1CCNCC1 [YB-537] | 92.2 and 96.1 and 103.0

Same assay, conditions: THLE2, 72 hour; inhibitor 6.25e-6 M; in % (unit assumed)

SMILES | cell viability, Cell-Titer-Glo (replicates)
Cc1ccc(-c2cn3cccc(C)c3n2)cc1S(=O)(=O)N1CCNCC1 [YB-537] | 89.6 and 101.5 and 85.3

Same assay, conditions: THLE2, 72 hour; inhibitor 1.25e-5 M; in % (unit assumed)

SMILES | cell viability, Cell-Titer-Glo (replicates)
Cc1ccc(-c2cn3cccc(C)c3n2)cc1S(=O)(=O)N1CCNCC1 [YB-537] | 95.7 and 97.8 and 93.2

Same assay, conditions: THLE2, 72 hour; inhibitor 2.5e-5 M; in % (unit assumed)

SMILES | cell viability, Cell-Titer-Glo (replicates)
Cc1ccc(-c2cn3cccc(C)c3n2)cc1S(=O)(=O)N1CCNCC1 [YB-537] | 93.9 and 92.0 and 88.2

Same assay, conditions: THLE2, 72 hour; inhibitor 5e-5 M; in % (unit assumed)

SMILES | cell viability, Cell-Titer-Glo (replicates)
Cc1ccc(-c2cn3cccc(C)c3n2)cc1S(=O)(=O)N1CCNCC1 [YB-537] | 91.4 and 92.2

Same assay, conditions: THLE2, 72 hour; inhibitor 0.0001 M; in % (unit assumed)

SMILES | cell viability, Cell-Titer-Glo (replicates)
Cc1ccc(-c2cn3cccc(C)c3n2)cc1S(=O)(=O)N1CCNCC1 [YB-537] | 81.5 and 82.7 and 80.4

Same assay, conditions: THLE2 cells, 72 hour incubation

SMILES | LD50, cell viability (Cell-Titer-Glo)
Cc1ccc(-c2cn3cccc(C)c3n2)cc1S(=O)(=O)N1CCNCC1 [YB-537] | > 100 µM
